From publication PMC7127791 (Bioorganic & Medicinal Chemistry Letters, 2016)
“Also recorded” adds a separate entry of the source.

Experiments:
Para-influenza-3 virus = test: organism not typed; assay type: cell-based, Parainfluenza-3 virus; conditions: Vero, read-out: Antiviral EC50 Para-influenza-3 virus
Reovirus-1 = test: organism not typed; assay type: cell-based; conditions: Vero, read-out: Antiviral EC50 Reovirus-1
[1] = tested on: broad and diverse panel of DNA and RNA viruses; assay type: cell-based
HEL cells = test: Cytotoxicity; conditions: human embryonic lung fibroblast cells; microscopy
Vero cells = test: Cytotoxicity; conditions: minimal cytotoxic concentration by microscopical inspection
HeLa cells = test: Cytotoxicity; conditions: HeLa cervix carcinoma cells; microscopy
MDCK cells = test: Cytotoxicity; conditions: Madin-Darby canine kidney cells; microscopy
varicella zoster virus = conditions: human
Punta Toro virus [2] = assay type: cell-based
[3] = tested on: Rift Valley fever virus (MP-12 strain); assay type: cell-based
Punta Toro virus [4] = assay type: cell-based; remark: listed apart in the source
other cell lines tested = test: Cytotoxicity in the other mammalian cell lines tested; conditions: 100 μM compound concentration; cell lines other than Vero, HEL and MT4

Row | Structure (SMILES) | EC50 (Para-influenza-3 virus) | EC50 (Reovirus-1) | Cytotoxicity MCC HEL (HEL cells) | Cytotoxicity MCC (Vero cells) | Cytotoxicity MCC HeLa (HeLa cells) | Cytotoxicity MCC MDCK (MDCK cells) | also measured
1 | CCOC(=O)C1=C(C)NC(=O)NC1c1ccccc1Cl (centres unmarked) [Compound 4b, Ethyl 4-(2-chlorophenyl)-6-methyl-2-oxo-1,2,3,4-tetrahydropyrimidine-5-carboxylate] | > 100 µM | > 100 µM | >100 µM | >100 µM | >100 µM | >100 µM | antiviral activity against the virus panel (in words) [1]: no antiviral activity
2 | CCOC(=O)C1=C(C)NC(=O)NC1c1ccc(O)cc1 (centres unmarked) [Compound 4e, Ethyl 4-(4-hydroxyphenyl)-6-methyl-2-oxo-1,2,3,4-tetrahydropyrimidine-5-carboxylate] | > 100 µM | > 100 µM | >100 µM | >100 µM | >100 µM | >100 µM | –
3 | CCOC(=O)C1=C(C)NC(=O)NC1c1ccc(N(C)C)cc1 (centres unmarked) [Compound 4g, Ethyl 4-[4-(dimethylamino)phenyl]-6-methyl-2-oxo-1,2,3,4-tetrahydropyrimidine-5-carboxylate] | – | – | >100 µM | 100 µM | >100 µM | >100 µM | –
4 | CCOC(=O)C1=C(C)NC(=O)NC1/C=C/c1ccccc1 (centres unmarked) [Compound 4h, Ethyl 6-methyl-2-oxo-4-[(E)-2-phenylethenyl]-1,2,3,4-tetrahydropyrimidine-5-carboxylate] | > 100 µM | > 100 µM | >100 µM | 100 µM | ⩾100 μM | >100 µM | MCC reported with the varicella zoster virus EC50 (varicella zoster virus): 100 µM
5 | CCOC(=O)C1=C(C)NC(=O)NC1c1cccs1 (centres unmarked) [Compound 4i, Ethyl 6-methyl-2-oxo-4-(thiophen-2-yl)-1,2,3,4-tetrahydropyrimidine-5-carboxylate] | – | – | – | – | >100 µM | >100 µM | –
6 | CCOC(=O)C1=C(C)NC(=O)NC1 [Compound 4j, Ethyl 6-methyl-2-oxo-1,2,3,4-tetrahydropyrimidine-5-carboxylate] | – | – | – | – | >100 µM | >100 µM | –
7 | CCOC(=O)C1=C(C)NC(=O)NC1C (centres unmarked) [Compound 4k, Ethyl 4,6-dimethyl-2-oxo-1,2,3,4-tetrahydropyrimidine-5-carboxylate] | – | – | – | – | >100 µM | >100 µM | –
8 | CCOC(=O)C1=C(C)NC(=O)NC1CC(C)C (centres unmarked) [Compound 4l, Ethyl 6-methyl-4-(2-methylpropyl)-2-oxo-1,2,3,4-tetrahydropyrimidine-5-carboxylate] | – | – | >100 µM | >100 µM | >100 µM | >100 µM | –
9 | CCCCCCCCCCCC1NC(=O)NC(C)=C1C(=O)OCC (centres unmarked) [Compound 4m, Ethyl 6-methyl-2-oxo-4-undecyl-1,2,3,4-tetrahydro-5-pyrimidinecarboxylate] | > 100 µM | > 100 µM | 100 µM | – | >100 µM | >100 µM | activity against Punta Toro virus (in words) (Punta Toro virus [2]): selective and potent inhibitor; also recorded: selective and potent antiviral activity; also recorded: potent and selective inhibitor; times more potent than dextran sulphate (DS-10000) (Punta Toro virus [2]): approximately 7 times; times more potent than mycophenolic acid (Punta Toro virus [2]): approximately 7 times; activity against Rift Valley fever virus (in words) [3]: negligible; reduction in RVFV-induced CPE [3]: about 40%; 50% inhibition of RVFV at 100 μM (in words) ([3]; 100 μM): unable to achieve 50% inhibition; activity against PTV in HeLa cells (in words) (Punta Toro virus [4]): inactive; antiviral activity against the virus panel (in words) [1]: did not have antiviral activity against all other viruses tested; toxicity in the other cell lines tested (in words) (other cell lines tested): no toxicity
10 | CCOC(=O)C1C2NC(=O)NC1(C)Oc1ccccc12 (centres unmarked) [Compound 5, Ethyl 9-methyl-11-oxo-8-oxa-10,12-diazatricyclo[7.3.1.0^2,7]trideca-2,4,6-triene-13-carboxylate] | > 100 µM | > 100 µM | >100 µM | >100 µM | >100 µM | >100 µM | –
11 | NC(=O)c1ncn([C@@H]2O[C@H](CO)[C@@H](O)[C@H]2O)n1 [Ribavirin, reference compound] | – | > 250 µM | – | >250 µM | – | – | –
